In patent US12697325B2 (TENNOR THERAPEUTICS (SUZHOU) LIMITED, priority 2021, dated 2026):

Legend:
[1] = Stability of sulbactam sodium and avibactam sodium in different pH buffers (HPLC purity); type: physicochemical; conditions: 20° C., 24 h; for Purity in pH buffer (monomer): purity 100% at 0 h, alone; for Purity in pH buffer (in mixture): mixture 4:1 (sulbactam sodium 1 mg/mL, avibactam sodium 0.25 mg/mL)
[2] = 0.5 g, q8 h via infusion for 2 h; cited from earlier work
[3] = cited from earlier work

## NC(=O)[C@@H]1CC[C@@H]2CN1C(=O)N2OS(=O)(=O)O [Avibactam, [(2S,5R)-2-carbamoyl-7-oxo-1,6-diazabicyclo [3.2.1]oct-6-yl] bisulfate]
[1]; pH 4.0 buffer
  Purity in pH buffer (monomer): −24.20%
  Purity in pH buffer (in mixture): −23.74%
[1]; pH 4.5 buffer
  Purity in pH buffer (monomer): −2.31%
  Purity in pH buffer (in mixture): −1.42%
[1]; pH 5.0 buffer
  Purity in pH buffer (monomer): −0.71%
  Purity in pH buffer (in mixture): −0.99%
[1]; pH 5.5 buffer
  Purity in pH buffer (monomer): −0.77%
  Purity in pH buffer (in mixture): −0.54%
[1]; pH 6.0 buffer
  Purity in pH buffer (monomer): −1.75%
  Purity in pH buffer (in mixture): −1.76%
[1]; pH 7.3 buffer
  Purity in pH buffer (monomer): −0.81%
  Purity in pH buffer (in mixture): −1.06%
[1]; pH 8.0 buffer
  Purity in pH buffer (monomer): −8.87%
  Purity in pH buffer (in mixture): −8.81%
[2]
  Part of the dosing interval with plasma concentration above 4 μg/mL: 50%
  Part of the dosing interval with plasma concentration above 8 μg/mL: 30%
[3]
  Protein binding: ~8%
